Here are results for 27 compounds from patent US9695192B2, “Fused heterocyclic compounds as ion channel modulators” (GILEAD SCIENCES, INC., priority 2011, dated 2017).

For the experiment, the target named is wild-type human cardiac sodium channel, hNav1.5 (Homo sapiens, UniProt Q14524). As to the kind of experiment: Late INa screening assay (QPatch whole cell patch clamp, tefluthrin-enhanced late sodium current). The conditions noted are these: HEK293 hNav1.5, late INa activated with 10 μM Tefluthrin. It counts as cell-based. Here is the method: The late sodium current (Late INa) and peak sodium current (Peak INa) assays are performed on an automated electrophysiology platform, QPatch 16X (Sophion Bioscience, Copenhagen, Denmark), which uses the whole cell patch clamp technique to measure currents through the cell membrane of up to 16 cells at a time. The assay uses an HEK293 (human embryonic kidney) cell line heterologously expressing the wild-type human cardiac sodium channel, hNav1.5, purchased from Millipore (Billerica, Mass.). No beta subunits were coexpressed with the Na channel alpha subunit. Cells are maintained with standard tissue culture procedures and stable channel expression is maintained with 400 μg/mL Geneticin in the culture medium. Cells isolated for use on QPatch are incubated for 5 minutes in Detachin 1X (Genlantis, San Diego, USA) at 37° C. to ensure that 80-90% of the cells are single and not part of a cell cluster. Experiments are carried out at 23-25° C.
Sequence of wild-type human cardiac sodium channel, hNav1.5 (Q14524 whole entry): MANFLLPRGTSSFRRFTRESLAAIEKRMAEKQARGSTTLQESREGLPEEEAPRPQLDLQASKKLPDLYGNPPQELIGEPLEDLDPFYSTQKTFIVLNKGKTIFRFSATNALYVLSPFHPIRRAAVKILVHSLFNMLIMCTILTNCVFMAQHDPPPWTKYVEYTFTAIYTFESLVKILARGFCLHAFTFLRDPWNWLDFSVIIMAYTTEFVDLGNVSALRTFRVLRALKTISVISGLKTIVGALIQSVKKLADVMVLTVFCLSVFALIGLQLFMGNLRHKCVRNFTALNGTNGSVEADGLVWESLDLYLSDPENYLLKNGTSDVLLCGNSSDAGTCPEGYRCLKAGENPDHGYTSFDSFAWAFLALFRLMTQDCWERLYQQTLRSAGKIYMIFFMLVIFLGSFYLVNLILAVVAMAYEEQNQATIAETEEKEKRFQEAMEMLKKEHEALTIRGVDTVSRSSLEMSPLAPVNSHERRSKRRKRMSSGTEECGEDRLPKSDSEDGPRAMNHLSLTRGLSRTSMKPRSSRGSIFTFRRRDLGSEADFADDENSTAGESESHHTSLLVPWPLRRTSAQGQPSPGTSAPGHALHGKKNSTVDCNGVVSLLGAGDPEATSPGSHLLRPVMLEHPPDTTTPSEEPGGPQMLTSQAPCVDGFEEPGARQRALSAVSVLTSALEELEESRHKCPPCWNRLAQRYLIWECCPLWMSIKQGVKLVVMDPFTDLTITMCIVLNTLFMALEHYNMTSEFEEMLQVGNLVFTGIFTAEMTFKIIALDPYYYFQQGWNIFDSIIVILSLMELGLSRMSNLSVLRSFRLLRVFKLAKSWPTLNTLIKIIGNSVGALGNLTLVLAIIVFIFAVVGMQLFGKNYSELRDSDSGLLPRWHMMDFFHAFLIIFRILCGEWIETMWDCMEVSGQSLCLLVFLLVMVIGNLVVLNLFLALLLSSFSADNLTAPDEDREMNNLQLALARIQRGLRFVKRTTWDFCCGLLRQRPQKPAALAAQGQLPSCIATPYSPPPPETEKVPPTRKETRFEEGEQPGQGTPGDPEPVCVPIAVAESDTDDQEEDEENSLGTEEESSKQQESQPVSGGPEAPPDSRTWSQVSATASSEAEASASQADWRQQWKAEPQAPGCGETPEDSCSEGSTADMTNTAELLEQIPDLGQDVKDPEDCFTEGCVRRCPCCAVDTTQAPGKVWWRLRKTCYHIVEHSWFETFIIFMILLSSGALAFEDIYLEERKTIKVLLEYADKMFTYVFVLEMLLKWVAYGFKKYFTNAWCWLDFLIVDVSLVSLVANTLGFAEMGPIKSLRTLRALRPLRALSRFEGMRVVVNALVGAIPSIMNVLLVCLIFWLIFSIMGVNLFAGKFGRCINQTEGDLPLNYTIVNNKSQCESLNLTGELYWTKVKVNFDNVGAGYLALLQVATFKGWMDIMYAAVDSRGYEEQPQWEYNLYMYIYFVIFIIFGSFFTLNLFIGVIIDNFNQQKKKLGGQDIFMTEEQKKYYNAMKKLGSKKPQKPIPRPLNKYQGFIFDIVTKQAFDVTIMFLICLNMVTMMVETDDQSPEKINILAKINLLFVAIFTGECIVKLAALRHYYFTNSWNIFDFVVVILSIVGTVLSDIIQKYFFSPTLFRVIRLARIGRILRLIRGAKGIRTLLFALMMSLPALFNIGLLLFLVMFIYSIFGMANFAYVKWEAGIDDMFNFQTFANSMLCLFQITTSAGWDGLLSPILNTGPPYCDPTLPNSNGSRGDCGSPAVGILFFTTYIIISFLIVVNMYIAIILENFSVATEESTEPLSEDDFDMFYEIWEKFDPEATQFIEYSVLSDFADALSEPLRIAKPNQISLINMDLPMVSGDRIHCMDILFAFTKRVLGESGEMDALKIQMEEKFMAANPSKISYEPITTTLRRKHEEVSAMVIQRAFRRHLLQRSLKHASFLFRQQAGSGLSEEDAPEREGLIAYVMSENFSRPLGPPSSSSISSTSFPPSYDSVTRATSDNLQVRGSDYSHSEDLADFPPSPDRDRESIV
For both the Late INa and Peak INa assays, series resistance compensation is set to 100% and series resistance and whole-cell compensation are performed automatically. Currents are digitized at 25 kHz and low-pass filtered at 12 kHz and 10 kHz for the late and peak INa assays, respectively. Currents through open sodium channels are automatically recorded and stored in the Sophion Bioscience Oracle database (Sophion Bioscience, Copenhagen, Denmark). Analysis is performed using QPatch Assay and database software and data are compiled in Excel.
Compound stocks are routinely made by the Gilead Sample Bank in plastic vials to 10 mM in dimethyl sulfoxide (DMSO). In some cases, when compounds are not soluble in DMSO, they are made in 100% ethanol. Stocks are sonicated as necessary. The extracellular solution for screening Late INa is composed of: 140 mM NaCl, 4 mM KCl, 1.8 mM CaCl2, 0.75 mM MgCl2 and 5 mM HEPES with pH adjusted to 7.4 using NaOH. The intracellular solution used to perfuse the inside of the cells for both the Late INa and Peak INa assays contains: 120 mM CsF, 20 mM CsCl, 5 mM EGTA, 5 mM HEPES and pH adjusted to 7.4 with CsOH. Compounds are diluted in extracellular solution to 1 μM in glass vials and then transferred to glass well plates before robotic addition to the cells. A 0 mM Na extracellular solution (0 Na-ECF) is used at the end of each experiment for the Late INa and Peak INa assays to measure baseline current contains: 140 mM N-methyl-D-glucamine; 4 mM KCl; 1.8 mM CaCl2; 0.75 mM MgCl2; 5 mM HEPES and pH was adjusted to 7.4 with HCl.
For the hNav1.5 Late INa assay, sodium channels are activated every 10 seconds (0.1 Hz) by depolarizing the cell membrane to −20 mV for 250 milliseconds (ms) from a holding potential of −120 mV. In response to a −20 mV voltage step, typical hNav1.5 sodium currents activate rapidly to a peak negative current and then inactivate nearly completely within 3-4 ms.
Compounds were tested to determine their activity in blocking the late sodium current. Late INa was generated by adding 10 μM Tefluthrin (pyrethroid) to the extracellular solution while recording Na currents. To confirm the block of late INa observed using the automated screening method, a second late INa enhancer (ATX-II) and the manual patch clamp method were used. ATX-II and tefluthrin occupy distinct, non-overlapping binding sites and modify Na^+ channel function differently to increase late INa. Compounds tested have been found generally to inhibit the enhanced late INa caused by either late INa enhancer. For the purposes of the screening, late INa is defined as the mean current between 225 ms and 250 ms after stepping to −20 mV to activate Na channels. After establishing the whole cell recording configuration, late INa activator is added to each well 4 times over a 16-17 minute period so that the late component of the Na current reaches a stable value. Compounds were then added (typically at 1 μM), in the presence of the late INa activator, with 3 additions over the course of 7 or 8 minutes. […]
For the compound `FC(F)(F)c1ccc(-c2ccc3c(c2)C(N2CCCC2)=NCCO3)cc1` [II-3, 5-(pyrrolidin-1-yl)-7-(4-(trifluoromethyl)phenyl)-2,3-dihydrobenzo[f][1,4]oxazepine], the inhibition at 1 µM was found to be 25%.

With `FC(F)(F)c1ccc(-c2ccc3c(c2)C(NC2CC2)=NCCO3)cc1` [II-4, N-cyclopropyl-7-(4-(trifluoromethyl)phenyl)-2,3-dihydrobenzo[f][1,4]oxazepin-5-amine], the inhibition at 1 µM was 25%.

Take `CN(Cc1ccccc1)C1=NCCOc2ccc(-c3ccc(C(F)(F)F)cc3)cc21` [II-5, N-benzyl-N-methyl-7-(4-(trifluoromethyl)phenyl)-2,3-dihydrobenzo[f][1,4]oxazepin-5-amine]: the inhibition at 1 µM came out at 28%.

As to `FC1(F)CCN(C2=NCCOc3ccc(-c4ccc(C(F)(F)F)cc4)cc32)C1` [II-6, 5-(3,3-difluoropyrrolidin-1-yl)-7-(4-(trifluoromethyl)phenyl)-2,3-dihydrobenzo[f][1,4]oxazepine], the inhibition at 1 µM worked out at 7%.

Consider `FC(F)(F)c1ccc(-c2ccc3c(c2)C(NCc2ncccn2)=NCCO3)cc1` [II-7, N-(pyrimidin-2-ylmethyl)-7-(4-(trifluoromethyl)phenyl)-2,3-dihydrobenzo[f][1,4]oxazepin-5-amine], for which the inhibition at 1 µM is 14%.

As to `CN(C1=NCCOc2ccc(-c3ccc(C(F)(F)F)cc3)cc21)C1CC1` [II-8, N-cyclopropyl-N-methyl-7-(4-(trifluoromethyl)phenyl)-2,3-dihydrobenzo[f][1,4]oxazepin-5-amine], the inhibition at 1 µM amounted to 13%.

As for `Fc1cccnc1CNC1=NCCOc2ccc(-c3ccc(C(F)(F)F)cc3)cc21` [II-9, N-((3-fluoropyridin-2-yl)methyl)-7-(4-(trifluoromethyl)phenyl)-2,3-dihydrobenzo[f][1,4]oxazepin-5-amine], the inhibition at 1 µM amounted to 23%.

Take `FC(F)(F)c1ccc(-c2ccc3c(c2)C(NCc2ccccn2)=NCCO3)cc1` [II-10, N-(pyridin-2-ylmethyl)-7-(4-(trifluoromethyl)phenyl)-2,3-dihydrobenzo[f][1,4]oxazepin-5-amine]: the inhibition at 1 µM is 32%.

With `CC(C)(C)OC(=O)NC1CN(C2=NCCOc3ccc(-c4ccc(C(F)(F)F)cc4)cc32)C1` [II-12, tert-butyl 1-(7-(4-(trifluoromethyl)phenyl)-2,3-dihydrobenzo[f][1,4]oxazepin-5-yl)azetidin-3-ylcarbamate], the inhibition at 1 µM was 9%.

As to `CC(C)(C)OC(=O)N[C@H]1CCN(C2=NCCOc3ccc(-c4ccc(C(F)(F)F)cc4)cc32)C1` [II-13, (S)-tert-butyl 1-(7-(4-(trifluoromethyl)phenyl)-2,3-dihydrobenzo[f][1,4]oxazepin-5-yl)pyrrolidin-3-ylcarbamate], the inhibition at 1 µM turned out to be 15%.

As for `FC(F)(F)c1ccc(-c2ccc3c(c2)C(NCCn2ccnc2)=NCCO3)cc1` [II-14, N-(2-(1H-imidazol-1-yl)ethyl)-7-(4-(trifluoromethyl)phenyl)-2,3-dihydrobenzo[f][1,4]oxazepin-5-amine], the inhibition at 1 µM worked out at 17%.

With `OC[C@H]1CCN(C2=NCCOc3ccc(-c4ccc(C(F)(F)F)cc4)cc32)C1` [II-16, (S)-(1-(7-(4-(trifluoromethyl)phenyl)-2,3-dihydrobenzo[f][1,4]oxazepin-5-yl)pyrrolidin-3-yl)methanol], the inhibition at 1 µM amounted to 13%.

`Cn1ccnc1CNC1=NCCOc2ccc(-c3ccc(C(F)(F)F)cc3)cc21` [II-17, N-((1-methyl-1H-imidazol-2-yl)methyl)-7-(4-(trifluoromethyl)phenyl)-2,3-dihydrobenzo[f][1,4]oxazepin-5-amine]: the inhibition at 1 µM was determined as 10%.

As to `NC1CN(C2=NCCOc3ccc(-c4ccc(C(F)(F)F)cc4)cc32)C1` [II-18, 1-(7-(4-(trifluoromethyl)phenyl)-2,3-dihydrobenzo[f][1,4]oxazepin-5-yl)azetidin-3-amine], the inhibition at 1 µM worked out at 9%.

`FC(F)(F)c1ccc(-c2ccc3c(c2)C(Nc2ccccn2)=NCCO3)cc1` [II-19, N-(pyridin-2-yl)-7-(4-(trifluoromethyl)phenyl)-2,3-dihydrobenzo[f][1,4]oxazepin-5-amine]: the inhibition at 1 µM was found to be 43%.

For `FC1(F)CCN(C2=NCCOc3ccc(-c4ccc(C(F)(F)F)cc4)cc32)CC1` [II-21, 5-(4,4-difluoropiperidin-1-yl)-7-(4-(trifluoromethyl)phenyl)-2,3-dihydrobenzo[f][1,4]oxazepine], the inhibition at 1 µM turned out to be 13%.

With `OC1CCN(C2=NCCOc3ccc(-c4ccc(C(F)(F)F)cc4)cc32)C1` (stereo not drawn) [II-23, 1-(7-(4-(trifluoromethyl)phenyl)-2,3-dihydrobenzo[f][1,4]oxazepin-5-yl)pyrrolidin-3-ol], the inhibition at 1 µM amounted to 9%.

Regarding `FC(F)(F)c1ccc(-c2ccc3c(c2)C(NCCOc2ccccc2Cl)=NCCO3)cc1` [II-24, N-(2-(2-chlorophenoxy)ethyl)-7-(4-(trifluoromethyl)phenyl)-2,3-dihydrobenzo[f][1,4]oxazepin-5-amine], the inhibition at 1 µM was 26%.

With `FC(F)(F)c1ccc(-c2ccc3c(c2)C(NCc2cccc(C(F)(F)F)n2)=NCCO3)cc1` [II-25, 7-(4-(trifluoromethyl)phenyl)-N-((6-(trifluoromethyl)pyridin-2-yl)methyl)-2,3-dihydrobenzo[f][1,4]oxazepin-5-amine], the inhibition at 1 µM was 20%.

For `FC(F)(F)c1ccc(-c2ccc3c(c2)C(Nc2nnn[nH]2)=NCCO3)cc1` [II-26, N-(1H-tetrazol-5-yl)-7-(4-(trifluoromethyl)phenyl)-2,3-dihydrobenzo[f][1,4]oxazepin-5-amine], the inhibition at 1 µM was 14%.

For `FC(F)(F)c1ccc(-c2ccc3c(c2)C(Nc2cccc(C(F)(F)F)n2)=NCCO3)cc1` [II-27, 7-(4-(trifluoromethyl)phenyl)-N-(6-(trifluoromethyl)pyridin-2-yl)-2,3-dihydrobenzo[f][1,4]oxazepin-5-amine], the inhibition at 1 µM came to 1%.

In the case of `FC(F)(F)CNC1=NCCOc2ccc(-c3ccc(C(F)(F)F)cc3)cc21` [II-29, N-(2,2,2-trifluoroethyl)-7-(4-(trifluoromethyl)phenyl)-2,3-dihydrobenzo[f][1,4]oxazepin-5-amine], the inhibition at 1 µM was 7%.

For the compound `O=C1CCCN1C1=NCCOc2ccc(-c3ccc(C(F)(F)F)cc3)cc21` [II-30, 1-(7-(4-(trifluoromethyl)phenyl)-2,3-dihydrobenzo[f][1,4]oxazepin-5-yl)pyrrolidin-2-one], the inhibition at 1 µM came to 10%.

On to `FC(F)(F)c1ccc(-c2ccc3c(c2)C(N2CCN(C4CC4)CC2)=NCCO3)cc1` [II-31, 5-(4-cyclopropylpiperazin-1-yl)-7-(4-(trifluoromethyl)phenyl)-2,3-dihydrobenzo[f][1,4]oxazepine], for which the inhibition at 1 µM was found to be 24%.

Take `FC(F)(F)c1ccc(-c2ccc3c(c2)C(Nc2ccccc2)=NCCO3)cc1` [II-32, N-phenyl-7-(4-(trifluoromethyl)phenyl)-2,3-dihydrobenzo[f][1,4]oxazepin-5-amine]: the inhibition at 1 µM came to 26%.

On to `Cn1c(CNC2=NCCOc3ccc(-c4ccc(C(F)(F)F)cc4)cc32)nc2ccccc21` [II-33, N-((1-methyl-1H-benzo[d]imidazol-2-yl)methyl)-7-(4-(trifluoromethyl)phenyl)-2,3-dihydrobenzo[f][1,4]oxazepin-5-amine], for which the inhibition at 1 µM turned out to be 34%.

As for `FC(F)(F)c1ccc(-c2ccc3c(c2)C(NC2CCN(Cc4ncccn4)C2)=NCCO3)cc1` (stereo not drawn) [II-34, N-(1-(pyrimidin-2-ylmethyl)pyrrolidin-3-yl)-7-(4-(trifluoromethyl)phenyl)-2,3-dihydrobenzo[f][1,4]oxazepin-5-amine], the inhibition at 1 µM turned out to be 3%.
